One data set has as its target T1, COX-1 (Homo sapiens, UniProt P23219).
T1 construct: Fresh blood from healthy volunteers; endogenous in cells; host or cells: fresh heparinized human whole blood stimulated with calcium ionophore A23187
Briefly: COX-1 activity in human whole blood (TXB2, calcium ionophore A23187). In kind it is cell-based. Conditions: 1 h at 37° C., TXB2 ELISA. Here is the method:
For the COX-1 activity determination, 500 μl aliquots of blood were incubated with either 5 μl vehicle (dimethylsulphoxide) or 5 μl of a test compound for 1 h at 37° C. […] Plasma was separated by centrifugation (10 min at 13000 rpm) and kept at −30° C. until TXB2 levels were measured using an enzyme immunoassay kit (ELISA). The effect of the compounds were evaluated by incubating each compound at five to six different concentrations with triplicate determinations. IC50 values were obtained by non-linear regression using InPlot, GraphPad software on an IBM computer.

For another data set, the target named is T2, COX-2 (Homo sapiens, UniProt P35354).
T2 construct: incubated in the presence of LPS (10 μg/ml) for 24 h at 37° C. in order to induce The COX-2 expression; endogenous in cells; host or cells: fresh heparinized human whole blood, COX-2 induced with LPS for 24 h
T2 sequence (P35354 18-604): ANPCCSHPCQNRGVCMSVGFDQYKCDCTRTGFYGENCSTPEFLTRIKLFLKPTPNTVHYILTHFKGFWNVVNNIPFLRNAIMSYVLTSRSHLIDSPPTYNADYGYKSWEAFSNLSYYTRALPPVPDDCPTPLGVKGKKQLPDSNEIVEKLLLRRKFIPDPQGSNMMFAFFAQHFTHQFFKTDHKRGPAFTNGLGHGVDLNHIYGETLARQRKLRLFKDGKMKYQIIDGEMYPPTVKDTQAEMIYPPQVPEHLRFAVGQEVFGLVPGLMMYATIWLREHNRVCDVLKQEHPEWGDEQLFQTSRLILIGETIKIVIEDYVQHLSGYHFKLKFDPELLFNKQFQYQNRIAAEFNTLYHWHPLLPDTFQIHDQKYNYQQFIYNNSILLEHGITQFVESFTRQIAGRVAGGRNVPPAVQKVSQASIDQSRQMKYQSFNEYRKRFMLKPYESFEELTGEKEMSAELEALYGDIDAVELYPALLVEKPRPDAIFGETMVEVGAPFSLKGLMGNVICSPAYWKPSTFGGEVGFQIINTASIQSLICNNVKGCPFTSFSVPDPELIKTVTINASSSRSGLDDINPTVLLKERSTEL
Briefly: COX-2 activity in human whole blood (PGE2, LPS-induced). Conditions: for IC50: human whole blood, LPS 10 μg/ml 24 h at 37° C., PGE2 ELISA; for Ratio COX-1/COX-2: ratio of whole blood IC50 values. In kind it is cell-based. Here is the method:
Plasma was separated by centrifugation (10 min at 13000 rpm.) and kept at −30° C. until PGE2 levels were measured using an enzyme immunoassay kit (ELISA). The effects of inhibitors were studied by incubating each compound (5 μl aliquots) at five to six different concentrations with triplicate determinations in the presence of LPS for 24 hours. IC50 values were obtained by non-linear regression using InPlot, GraphPad software on an IBM computer.
(ELISA stands for enzyme-linked immunosorbent assay.)

Data set [1] has as its system intestinal ulcers and hematocrit in male Wistar rats. Briefly: Ulcerogenic activity. In kind it is in vivo, rat. Details: key to Lesion index PU (perforated ulcers) / Lesion index NPU (non-perforated ulcers): 0:no ulcers; 1:<10 ulcers; 2:10-25 ulcers; 3:>25 ulcers. Conditions: for Lesion index NPU (non-perforated ulcers) / Lesion index PU (perforated ulcers): index 0 to 3. On the procedure:
Animals: Male Wistar rate (Interfauna, U.K., Ltd.) weighing about 150-175 g were used. Animals were maintained on a 12:12 hour light-dark cycle (lights on at 7:00 am) at room temperature (22±1° C.). Food and water were allowed ad libitum.
Procedure: The compounds were administered by the oral route once a day for 4 consecutive days. The body weight of each rat was assessed every day before drug administration. The animals were anesthesized 24 h after the last dosing and 1 ml of blood was extracted by cardiac puncture using heparin (10 U/ml) as anticoagulant. The percentage of hematocrit was measured. The intestines were removed, opened longitudinally and gently washed. The macroscopic severity of the intestinal erosions was assessed using a parametric scale, evaluating the number of the perforated and non-perforated intestinal ulcers by means of a lesion index ranging from 0 to 3 (0:no ulcers, 1:<10 ulcers, 2:10-25 ulcers to 3:>25 ulcers). No gastric ulcers are observed using this protocol.
The treatments were randomized in each experiment. The results were compared with those obtained in the vehicle-treated group using the ANOVA test.

Data set [2] deals with adjuvant arthritis (hind paw volume) in male Wistar rats. Briefly: Anti-inflammatory activity (adjuvant arthritis). In kind it is in vivo, rat. The settings on record: dose 1 mg/kg p.o. once daily for 7 days (days 14-20), measured day 21.
Setting [3] is: dose 100 mg/kg oral once a day for 4 days.
The mark [4] stands for this setting: dose 10 mg/kg oral once a day for 4 days.

T1 sequence (P23219 24-599): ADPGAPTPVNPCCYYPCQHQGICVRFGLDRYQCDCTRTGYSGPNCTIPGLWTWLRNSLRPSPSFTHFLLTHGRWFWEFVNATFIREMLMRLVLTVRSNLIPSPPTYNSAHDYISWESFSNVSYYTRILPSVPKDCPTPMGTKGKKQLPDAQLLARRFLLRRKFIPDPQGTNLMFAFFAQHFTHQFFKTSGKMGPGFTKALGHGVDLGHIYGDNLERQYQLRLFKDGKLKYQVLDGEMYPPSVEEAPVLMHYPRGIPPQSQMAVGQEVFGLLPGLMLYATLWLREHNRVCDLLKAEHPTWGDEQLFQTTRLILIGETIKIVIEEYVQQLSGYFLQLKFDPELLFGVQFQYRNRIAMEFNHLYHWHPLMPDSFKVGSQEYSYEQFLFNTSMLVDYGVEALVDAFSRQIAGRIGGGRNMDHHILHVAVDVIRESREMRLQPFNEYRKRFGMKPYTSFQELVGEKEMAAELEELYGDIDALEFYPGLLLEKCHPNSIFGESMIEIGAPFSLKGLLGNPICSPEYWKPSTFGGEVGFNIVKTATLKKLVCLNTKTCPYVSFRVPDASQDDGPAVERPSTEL

What is called IC50 is the midpoint of a concentration-inhibition curve. A word on the melting point: it is the temperature, or range, at which the solid turns liquid. Compound `Cc1cc(=O)c(-c2ccccc2F)c(-c2ccc(S(C)(=O)=O)cc2)o1` [Compound 4, 3-(2-fluorophenyl)-2-(4-methanesulfonylphenyl)-6-methylpyran-4-one] came in with a melting point of 136 to 137 °C. The IC50 at COX-1 is greater than 100000 nM. Besides, at COX-2, the IC50 is 1500 nM and the “Ratio COX-1/COX-2” value is listed as greater than 66.

The compound `Cc1cc(=O)c(-c2ccc(Cl)cc2)c(-c2ccc(S(C)(=O)=O)cc2)o1` [Compound 5, 3-(4-chlorophenyl)-2-(4-methanesulfonylphenyl)-6-methylpyran-4-one] came in with a melting point of 182 °C. In addition, in data set [1] (setting [3]), the Hematocrit was 44.1 ± 0.7%, the “Lesion index NPU (non-perforated ulcers)” value worked out at 0 and the “Lesion index PU (perforated ulcers)” value turned out to be 0. In addition, the 50% inhibitory concentration (IC50) on COX-1 was greater than 100000 nM. Also, the “% Inhibition of inflammation (paw volume)” value (from here on “% Inhibition of inflammation”) in data set [2] was 50 (1) %. Moreover, at COX-2, the IC50 turned out to be 2100 nM and the “Ratio COX-1/COX-2” value was greater than 47.

`Cc1cc(=O)c(-c2ccc(Br)cc2)c(-c2ccc(S(C)(=O)=O)cc2)o1` [Compound 8, 3-(4-bromophenyl)-2-(4-methanesulfonylphenyl)-6-methylpyran-4-one] displayed a melting point of 198 °C. Moreover, on COX-1, the half-maximal inhibitory concentration (IC50) was greater than 100000 nM. Moreover, at COX-2, half-maximal inhibition (IC50) required 1700 nM and the “Ratio COX-1/COX-2” value is given as greater than 58.

`Cc1cc(=O)c(-c2ccc(Cl)c(Cl)c2)c(-c2ccc(S(C)(=O)=O)cc2)o1` [Compound 22, 3-(3,4-dichlorophenyl)-2-(4-methanesulfonylphenyl)-6-methylpyran-4-one] came in with a melting point of 156 °C. Also, the Hematocrit in data set [1] (setting [3]) is 44.4 ± 0.3%. The IC50 at COX-1 was found to be 37100 nM. Besides, the “% Inhibition of inflammation” value in data set [2] is 69 (1) %.

Turning to `COc1ccc(-c2c(-c3ccc(S(C)(=O)=O)cc3)oc(C)cc2=O)cc1Cl` [Compound 31], the melting point amounted to 116 °C. Also, on COX-1, the concentration for half-maximal inhibition (IC50) was greater than 100000 nM. Also, at COX-2, the half-inhibitory concentration (IC50) turned out to be 1670 nM and the “Ratio COX-1/COX-2” value is given as greater than 59.

On to `Cc1cc(=O)c(Cc2ccccc2)c(-c2ccc(S(C)(=O)=O)cc2)o1` [Compound 37], for which the melting point was 137 °C. On COX-1, the IC50 was greater than 100000 nM. Also, on COX-2, the IC50 worked out at 1080 nM and the “Ratio COX-1/COX-2” value is greater than 92.

`Cc1cc(=O)c(Oc2ccc(F)cc2)c(-c2ccc(S(C)(=O)=O)cc2)o1` [Compound 39, 3-(4-fluorophenoxy)-2-(4-methanesulfonylphenyl)-6-methylpyran-4-one] displayed a melting point of 189 °C. Moreover, in data set [1] (setting [3]), the Hematocrit turned out to be 43.7 ± 0.4%, the “Lesion index NPU (non-perforated ulcers)” value was determined as 0 and the “Lesion index PU (perforated ulcers)” value stood at 0. Moreover, the IC50 on COX-1 is greater than 100000 nM. For the same compound, the “% Inhibition of inflammation” value in data set [2] is 75 (1) %. On COX-2, the IC50 turned out to be 960 nM and the “Ratio COX-1/COX-2” value was greater than 104.

Turning to `Cc1cc(=O)c(Oc2ccc(Cl)cc2)c(-c2ccc(S(C)(=O)=O)cc2)o1` [Compound 41], in data set [1] (setting [3]), the Hematocrit is on record as 43.4 ± 1.9%, the “Lesion index NPU (non-perforated ulcers)” value worked out at 0 and the “Lesion index PU (perforated ulcers)” value is reported as 0. Also, at COX-1, the concentration for half-maximal inhibition (IC50) was greater than 100000 nM. Further, the “% Inhibition of inflammation” value in data set [2] is reported as 71 (1) %. Also, at COX-2, the half-inhibitory concentration (IC50) is 350 nM and the “Ratio COX-1/COX-2” value is recorded as greater than 285.

Take `Cc1cc(=O)c(Oc2ccc(Br)cc2)c(-c2ccc(S(C)(=O)=O)cc2)o1` [Compound 43, 3-(4-bromophenoxy)-2-(4-methanesulfonylphenyl)-6-methylpyran-4-one]: the melting point came out at 188 °C. Further, the concentration for half-maximal inhibition (IC50) at COX-1 is greater than 100000 nM. In addition, at COX-2, the midpoint of inhibition, the IC50, lay at 800 nM and the “Ratio COX-1/COX-2” value is recorded as 125.

Take `Cc1cc(=O)c(Oc2ccc(F)cc2F)c(-c2ccc(S(C)(=O)=O)cc2)o1` [Compound 45, 3-(2,4-difluorophenoxy)-2-(4-methanesulfonylphenyl)-6-methylpyran-4-one]: the melting point was 191 °C. Also, in data set [1] (setting [3]), the Hematocrit was 44.4 ± 0.9%, the “Lesion index NPU (non-perforated ulcers)” value amounted to 0 and the “Lesion index PU (perforated ulcers)” value is 0. For the same compound, on COX-1, the IC50 came to 22000 nM. Moreover, the “% Inhibition of inflammation” value in data set [2] is listed as 74 (1) %. Further, at COX-2, the half-inhibitory concentration (IC50) was 150 nM and the “Ratio COX-1/COX-2” value came to 147.

In the case of `Cc1cc(=O)c(Oc2cc(F)ccc2F)c(-c2ccc(S(C)(=O)=O)cc2)o1` [Compound 47, 3-(2,5-difluorophenoxy)-2-(4-methanesulfonylphenyl)-6-methylpyran-4-one], the melting point was 189 °C. Besides, the IC50 on COX-1 was 57100 nM. Further, on COX-2, the IC50 amounted to 800 nM and the “Ratio COX-1/COX-2” value amounted to 71.

The compound `CS(=O)(=O)c1ccc(-c2oc(C(F)F)cc(=O)c2-c2ccc(Cl)cc2)cc1` [Compound 67, 3-(4-chlorophenyl)-6-difluoromethyl-2-(4-methanesulfonylphenyl)pyran-4-one] came in with a melting point of 168 to 170 °C. The IC50 on COX-1 was greater than 100000 nM. Moreover, on COX-2, it took 2100 nM to reach half-maximal inhibition (IC50) and the “Ratio COX-1/COX-2” value is reported as greater than 47.

As for `COc1ccc2c(c1)c(CC(=O)O)c(C)n2C(=O)c1ccc(Cl)cc1` [Indomethacin, 1-(4-chlorobenzoyl)-5-methoxy-2-methylindole-3-acetic acid, reference compound], in data set [1] (setting [4]), the Hematocrit was found to be 22.7 ± 1.6%, the “Lesion index NPU (non-perforated ulcers)” value is reported as 3 (3:>25 ulcers) and the “Lesion index PU (perforated ulcers)” value was 3 (3:>25 ulcers). In data set [2], the “% Inhibition of inflammation” value is given as 64 (1) %.

Values taken from patent US6518303B2, “2-phenylpyran-4-one derivatives” (Almirall Prodesfarma S.A., priority 1999, dated 2003).
